Literature values, collected in patent US20040105900A1, “Extracts derived from Pueraria mirifica, Butea superba and/or Mucuna collettii and extraction thereof” (CHEIL JEDANG CORPORATION, priority 1999, published 2004).

Test system: skin of menopausal females
Details: after 6 months of application to the skin

In the case of estrogen, the “improvement in the depth of wrinkles” value is listed as 60%.
